SMILES strings stand for the structures. Counter-ions that a name gives are not always drawn. Like-named read-outs stand apart in the source and are kept apart here.

The test system of series [1] is Human peripheral blood mononuclear cells (PBMC). Kind of series: Cytokine Induction in Human Cells. It counts as cell-based. The following applies: 21-24 hrs culture, lowest concentration giving at least 2x negative control, tested 0.0001-10 micromolar. On the procedure: Cytokine Induction in Human Cells
Whole blood was obtained from healthy human donors and collected by venipuncture into vacutainer tubes or syringes containing EDTA. Human peripheral blood mononuclear cells (PBMC) were purified from the whole blood by density gradient centrifugation. Histopaque 1077 (15 mL, Sigma, St. Louis, Mo.) was transferred to 6×50 mL sterile polypropylene conical tubes. The Histopaque was overlayed with 15-25 mL of blood diluted 1:2 in Hank's Balanced Salts Solution (HBSS) (Gibco, Life Technology, Grand Island N.Y.). The tubes were then centrifuged at 1370 rpm for 30 minutes at 20° C., with no brake (400×g, GH 3.8A Rotor).
The interface (buffy coat) containing the PBMC was collected and placed in a new sterile 50 mL conical polypropylene centrifuge tube. The PBMC were mixed with an equal volume of HBSS (about 20 mL from the interface and about 20 mL of HBSS), and then centrifuged at 1090 rpm, 10 min, 20° C., with brake (270×g, GH 3.8A Rotor). After completing centrifugation, the cells were resuspended in 2-3 mL ACK Red blood cell lysis buffer (ammonium chloride potassium solution, Gibco, Life Technology) and incubated for 2-5 minutes at 20° C. Next, HBSS (40 mL) was added to the cells, and the sample was centrifuged at 270×g for 10 min at 20° C. The supernatant was decanted, and the cell pellet was resuspended in 5 mL AIM V® Medium (Gibco, Life Technology). Cell aggregates and debris were removed by filtering the cell solution through a BD Falcon 70 micron nylon cell strainer (BD Biosciences, San Jose, Calif.).
The number of viable cells were determined by counting with a Miltenyi FACS instrument (Miltenyi Biotec Inc., San Diego, Calif.) or by using a hemacytometer. For determining cell viability with a hemacytometer, the cells were diluted 1/10 in 0.4% trypan blue and HBSS (specifically, 50 microliter of trypan blue+40 microliter of HBSS+10 microliter of cell solution were added to a microfuge tube and mixed). Ten microliters of the diluted cells were then applied to the hemacytometer, and the number of viable PBMC were determined by microscopy.
The PBMC sample was then resuspended in 96-well plates at a concentration of 8×10^5 cells/well in 0.1 mL of AIM-V medium. Each compound was solubilized in DMSO to create a 3 mM stock solution. The stock solution was then further diluted with AIM-V medium to prepare the serial dilutions. The diluted compound (100 microliters) was then transferred to the PBMCs to achieve final compound concentrations of 10, 1, 0.1, 0.01, 0.001, 0.0001 micromolar. The plates also had both positive and negative controls. The negative control wells contained only AIM-V medium with no example compound. The positive control wells contained imiquimod serially diluted to concentrations of 10, 1, 0.1, 0.01, 0.001, 0.0001 micromolar. The plates were then cultured at 37° C./5% CO2 for 21-24 hrs. Cell-free supernatants were harvested by centrifuging the 96-well plates at 2100 rpm, 23° C. for 10 minutes. Approximately 160 microliter of the supernatant was then stored in a NUNC 96-well plate, covered with the compression cap and stored at −80° C. until the cytokine analysis was done.
IFN-alpha cytokine levels (pg/mL) were measured by ELISA (human IFN-α, pan specific, Mabtech, Cincinnati, Ohio), IFN-gamma, TNF-alpha, and IP-10 cytokine levels (pg/mL) were measured by multiplex bead assay (magnetic beads, R & D Systems Minneapolis, Minn.) according to the manufacturer's instructions.
Specifically, the minimum effective concentration of each compound (micromolar) was determined as the lowest concentration of the compound that induced a measured cytokine response at a level ([…]) that was at least 2× greater than that observed with the negative control wells.

The mark [2] stands for this setting: ELISA, read-out: MEC to Induce Cytokine IFN-alpha.
The mark [3] stands for this setting: multiplex bead assay, read-out: MEC to Induce Cytokine TNF-alpha.

`COCCc1nc2c(N)nc3ccccc3c2n1CCOCCNC(=N)N` (as salt: hydrochloride) [Example 6, 1-[2-[2-[4-amino-2-(2-methoxyethyl)imidazo[4,5-c]quinolin-1-yl]ethoxy]ethyl]guanidine dihydrochloride]: the melting point was 188 to 192 °C.
Regarding `Cc1nc2c(N)nc3ccccc3c2n1CCCCNC(=N)N` [Example 1, 1-[4-(4-amino-2-methyl-imidazo[4,5-c]quinolin-1-yl)butyl]guanidine dihydrochloride], the minimal effective concentration in series [1] (setting [2]) came to 1 µM; in series [1] (setting [3]), 0.001 µM.
For the molecule `CCCCc1nc2c(N)nc3ccccc3c2n1CCOCCNC(=N)N` [Example 5, 1-[2-[2-(4-amino-2-butyl-imidazo[4,5-c]quinolin-1-yl)ethoxy]ethyl]guanidine dihydrochloride], in series [1] (setting [2]), the minimal effective concentration is 0.01 µM. In addition, in series [1] (multiplex bead assay), the “MEC to Induce Cytokine IFN-gamma” value is 0.01 µM and the “MEC to Induce Cytokine IP-10” value is 0.001 µM. Further, the minimal effective concentration in series [1] (setting [3]) worked out at 0.001 µM.
Turning to `CC(C)Cn1cnc2c(N)nc3ccccc3c21` [imiquimod, reference compound], in series [1] (setting [2]), the minimal effective concentration was found to be 10 µM. For the same molecule, in series [1] (multiplex bead assay), the “MEC to Induce Cytokine IFN-gamma” value turned out to be 10 µM and the “MEC to Induce Cytokine IP-10” value turned out to be 10 µM. The minimal effective concentration in series [1] (setting [3]) came to 10 µM.
In the case of `CCCCc1nc2c(N)nc3ccccc3c2n1CCCCNC(=N)N` [Example 4, 1-[4-(4-amino-2-butyl-imidazo[4,5-c]quinolin-1-yl)butyl]guanidine hydrochloride], the minimal effective concentration in series [1] (setting [2]) was determined as 0.01 µM. Further, in series [1] (multiplex bead assay), the “MEC to Induce Cytokine IFN-gamma” value amounted to 0.1 µM and the “MEC to Induce Cytokine IP-10” value is 0.01 µM. The minimal effective concentration in series [1] (setting [3]) is 0.01 µM.
Molecule `CCCCCc1nc2c(N)nc3c(c2n1CCCCNC(=N)N)CCCC3` (as salt: hydrochloride) [Example 7, 1-[4-(4-amino-2-pentyl-6,7,8,9-tetrahydroimidazo[4,5-c]quinolin-1-yl)butyl]guanidine hydrochloride] came in with a melting point of 178 to 180 °C.
Consider `CCCc1nc2c(N)nc3ccccc3c2n1CCCCNC(=N)N` [Example 3, 1-[4-(4-amino-2-propyl-imidazo[4,5-c]quinolin-1-yl)butyl]guanidine hydrochloride], for which the minimal effective concentration in series [1] (setting [2]) and in series [1] (setting [3]) was 0.1 µM throughout. Further, in series [1] (multiplex bead assay), the “MEC to Induce Cytokine IFN-gamma” value is more than 10 µM.
In turn, `COCCc1nc2c(N)nc3ccccc3c2n1CC(C)(C)CNC(=N)N` (as salt: hydrochloride) [Example 8, 1-[3-[4-amino-2-(2-methoxyethyl)imidazo[4,5-c]quinolin-1-yl]-2,2-dimethyl-propyl]guanidine hydrochloride] registered a melting point of 246 to 250 °C.
Still for that read-out and setting: for `CCCc1nc2c(N)nc3ccccc3c2n1CCCCNC(=N)N` (as salt: hydrochloride) [Example 3, 1-[4-(4-amino-2-propyl-imidazo[4,5-c]quinolin-1-yl)butyl]guanidine hydrochloride] the value was 156 to 158 °C.
`Cc1nc2c(N)nc3ccccc3c2n1CCCCNC(=N)N` (as salt: hydrochloride) [Example 1, 1-[4-(4-amino-2-methyl-imidazo[4,5-c]quinolin-1-yl)butyl]guanidine dihydrochloride] had a melting point of 234 to 244 °C.
With `CCc1nc2c(N)nc3ccccc3c2n1CCCCNC(=N)N` [Example 2, 1-[4-(4-amino-2-ethyl-imidazo[4,5-c]quinolin-1-yl)butyl]guanidine hydrochloride], the minimal effective concentration in series [1] (setting [2]) and in series [1] (setting [3]) was 0.1 µM throughout. In addition, in series [1] (multiplex bead assay), the “MEC to Induce Cytokine IP-10” value was determined as 0.1 µM.
Consider `CCCCc1nc2c(N)nc3ccccc3c2n1CCCCNC(=N)N` (as salt: hydrochloride) [Example 4, 1-[4-(4-amino-2-butyl-imidazo[4,5-c]quinolin-1-yl)butyl]guanidine hydrochloride], for which the melting point was in the range of 237 to 238 °C.
With `COCCc1nc2c(N)nc3ccccc3c2n1CC(C)(C)CNC(=N)N` [Example 8, 1-[3-[4-amino-2-(2-methoxyethyl)imidazo[4,5-c]quinolin-1-yl]-2,2-dimethyl-propyl]guanidine hydrochloride], the minimal effective concentration in series [1] (setting [2]) was 0.1 µM. Besides, in series [1] (multiplex bead assay), the “MEC to Induce Cytokine IFN-gamma” value stood at 0.1 µM and the “MEC to Induce Cytokine IP-10” value is 0.01 µM. The minimal effective concentration in series [1] (setting [3]) is 0.1 µM.
On to `CCCCCc1nc2c(N)nc3c(c2n1CCCCNC(=N)N)CCCC3` [Example 7, 1-[4-(4-amino-2-pentyl-6,7,8,9-tetrahydroimidazo[4,5-c]quinolin-1-yl)butyl]guanidine hydrochloride], for which the minimal effective concentration in series [1] (setting [2]) and in series [1] (setting [3]) was 1 µM in each case. For the same molecule, the “MEC to Induce Cytokine IFN-gamma” value in series [1] (multiplex bead assay) was more than 10 µM. Moreover, in series [1] (multiplex bead assay), the “MEC to Induce Cytokine IP-10” value is 0.1 µM.
For `COCCc1nc2c(N)nc3ccccc3c2n1CCOCCNC(=N)N` [Example 6, 1-[2-[2-[4-amino-2-(2-methoxyethyl)imidazo[4,5-c]quinolin-1-yl]ethoxy]ethyl]guanidine dihydrochloride], the minimal effective concentration in series [1] (setting [2]) and in series [1] (setting [3]) was 0.01 µM throughout. Besides, the “MEC to Induce Cytokine IFN-gamma” value in series [1] (multiplex bead assay) was determined as 0.01 µM. For the same molecule, the “MEC to Induce Cytokine IP-10” value in series [1] (multiplex bead assay) amounted to 0.01 µM.

A word on the melting point: it is the temperature of the solid-liquid transition.

The values are drawn from patent publication US10487081B2, “Guanidine substituted imidazo[4,5-c] ring compounds” (3M INNOVATIVE PROPERTIES COMPANY, priority 2015, dated 2019).
